Measured values: the NIST ThermoML archive (doi:10.1016/j.tca.2006.01.020)

Experiment: molar heat capacity at constant pressure
Conditions: 101.33 kPa, Crystal, Small (less than 1 g) adiabatic calorimetry

[Ba+2].[O-2].[O-2].[O-2].[Zr+4] [barium zirconium(IV) oxide]
Conditions	molar heat capacity at constant pressure [J/K/mol]
1.659 K	0.00346
1.662 K	0.00357
1.664 K	0.00348
1.666 K	0.00351
1.671 K	0.00353
1.675 K	0.00351
1.677 K	0.00363
1.683 K	0.00349
1.689 K	0.00342
1.699 K	0.00335
1.722 K	0.00326
1.735 K	0.00341
1.744 K	0.00345
1.763 K	0.00333
2.098 K	0.00292
2.107 K	0.00345
2.124 K	0.00373
2.15 K	0.0036
2.163 K	0.00346
2.173 K	0.00343
2.185 K	0.00389
2.198 K	0.00355
2.209 K	0.00288
2.216 K	0.00344
2.228 K	0.00346
2.261 K	0.00391
2.281 K	0.0035
2.325 K	0.00371
2.372 K	0.0038
2.389 K	0.00365
2.42 K	0.00384
2.515 K	0.00414
2.651 K	0.00484
2.824 K	0.00516
2.831 K	0.00564
2.919 K	0.00559
2.952 K	0.00633
3.106 K	0.00618
3.116 K	0.00718
3.242 K	0.00714
3.366 K	0.00794
3.538 K	0.00865
3.656 K	0.00903
3.873 K	0.00964
3.987 K	0.0104
4.096 K	0.0108
4.199 K	0.0112
4.473 K	0.0129
4.617 K	0.0156
4.702 K	0.0156
4.777 K	0.0158
4.851 K	0.0176
4.929 K	0.0183
5.008 K	0.02
5.086 K	0.019
5.165 K	0.021
5.246 K	0.0226
5.329 K	0.0234
5.41 K	0.0243
5.489 K	0.0216
5.545 K	0.0289
5.64 K	0.0269
5.717 K	0.0288
5.79 K	0.0301
5.87 K	0.0306
5.93 K	0.0325
6.02 K	0.0336
6.08 K	0.0338
6.19 K	0.0357
6.27 K	0.0366
6.36 K	0.0388
6.45 K	0.0407
6.54 K	0.0424
6.62 K	0.044
6.72 K	0.0458
6.8 K	0.0494
6.9 K	0.0501
6.98 K	0.0511
7.08 K	0.0539
7.16 K	0.0547
7.26 K	0.0547
7.36 K	0.0593
7.47 K	0.0629
7.56 K	0.0638
7.67 K	0.0662
7.77 K	0.07
7.89 K	0.0767
7.98 K	0.076
8.1 K	0.0841
8.2 K	0.083
8.32 K	0.091
8.43 K	0.0913
8.55 K	0.101
8.67 K	0.102
8.8 K	0.112
8.91 K	0.111
9.05 K	0.127
9.12 K	0.121
9.26 K	0.138
9.33 K	0.13
9.47 K	0.148
9.6 K	0.144
9.75 K	0.163
9.88 K	0.159
10 K	0.168
10.01 K	0.17
10.18 K	0.188
10.31 K	0.186
10.47 K	0.208
10.6 K	0.205
10.76 K	0.228
10.94 K	0.235
11.09 K	0.245
11.27 K	0.27
11.45 K	0.278
11.62 K	0.29
11.8 K	0.317
12 K	0.341
12.15 K	0.34
12.35 K	0.385
12.54 K	0.383
12.72 K	0.416
12.92 K	0.449
13.12 K	0.466
13.32 K	0.5
13.53 K	0.54
13.73 K	0.561
13.93 K	0.599
14.13 K	0.628
14.34 K	0.692
14.54 K	0.702
14.75 K	0.772
14.97 K	0.803
15.18 K	0.858
15.39 K	0.892
15.59 K	0.951
15.81 K	1.02
16.03 K	1.06
16.24 K	1.13
16.46 K	1.2
16.68 K	1.25
16.9 K	1.32
17.12 K	1.4
17.34 K	1.46
17.56 K	1.54
17.79 K	1.63
18.03 K	1.72
18.26 K	1.77
18.47 K	1.87
18.69 K	1.97
18.92 K	2.07
19.15 K	2.15
19.38 K	2.27
19.62 K	2.37
19.86 K	2.44
20 K	2.564
20.07 K	2.59
20.32 K	2.69
20.56 K	2.75
20.77 K	2.91
21 K	3.03
21.25 K	3.1
21.47 K	3.28
21.71 K	3.37
21.95 K	3.48
22.17 K	3.66
22.41 K	3.78
22.67 K	3.87
22.9 K	3.98
23.11 K	4.17
23.34 K	4.32
23.59 K	4.41
23.83 K	4.56
24.06 K	4.76
24.31 K	4.87
24.56 K	4.97
24.78 K	5.12
25 K	5.34
25.24 K	5.49
25.5 K	5.6
25.74 K	5.74
25.96 K	5.93
26.19 K	6.12
26.44 K	6.29
26.7 K	6.36
26.94 K	6.51
27.15 K	6.76
27.39 K	6.91
27.68 K	6.91
27.72 K	7.04
28.07 K	7.4
28.32 K	7.57
28.59 K	7.63
28.82 K	7.79
29.03 K	8.03
29.26 K	8.25
30 K	8.651
30.07 K	8.73
30.34 K	8.73
30.45 K	8.93
31.03 K	9.36
31.64 K	9.8
32.28 K	10.4
32.94 K	10.9
33.63 K	11.4
34.33 K	11.9
35.05 K	12.4
35.78 K	13
36.53 K	13.5
37.28 K	14.1
38.03 K	14.7
38.8 K	15.3
39.58 K	15.9
40 K	16.19
40.37 K	16.4
41.18 K	17.1
42 K	17.7
42.84 K	18.3
43.69 K	19
44.56 K	19.6
45.45 K	20.2
46.36 K	21
47.29 K	21.6
48.24 K	22.3
49.21 K	23
50 K	23.59
50.25 K	23.7
51.26 K	24.4
52.27 K	25.2
53.27 K	25.9
54.27 K	26.6
55.27 K	27.3
56.27 K	28.1
57.27 K	28.8
58.26 K	29.5
59.25 K	30.2
60 K	30.79
60.25 K	31
61.24 K	31.6
62.3 K	32.5
63.25 K	33.2
64.23 K	33.8
65.21 K	34.5
66.2 K	35.2
67.19 K	35.9
68.19 K	36.2
69.19 K	36.9
70 K	37.33
71.18 K	38.3
72.18 K	38.8
73.19 K	39.5
74.19 K	40
75.18 K	40.7
76.18 K	41.3
77.18 K	42
78.18 K	42.5
79.18 K	43.1
80 K	43.22
80.18 K	43.6
81.18 K	44.3
82.18 K	44.7
83.18 K	45.1
84.17 K	45.7
85.17 K	46.3
86.17 K	46.7
87.17 K	47.2
87.74 K	46.8
89.5 K	48.5
90 K	48.58
91.29 K	49.3
93.12 K	50.1
94.99 K	51.3
96.9 K	52.1
98.84 K	52.7
100 K	53.49
100.82 K	53.7
102.81 K	54.6
104.8 K	55.6
106.79 K	56.6
108.78 K	57.5
110.77 K	58.4
112.76 K	59.4
114.75 K	60.3
116.74 K	61.2
118.72 K	62
120 K	62.3
120.69 K	62.8
122.66 K	63.7
124.65 K	64.5
126.64 K	65.3
128.63 K	66.1
130.62 K	66.8
132.27 K	67.5
133.6 K	68
134.94 K	68.5
136.28 K	69
137.64 K	69.5
139.02 K	70
140 K	70.04
140.41 K	70.1
141.81 K	70.6
143.23 K	71.1
144.66 K	71.7
146.11 K	72.2
147.57 K	72.7
149.04 K	73.2
150.53 K	73.9
152.03 K	74.3
153.55 K	74.9
155.09 K	75.3
156.64 K	75.9
158.2 K	76.3
159.79 K	76.9
160 K	76.91
161.38 K	77.3
163 K	77.9
164.63 K	78.4
166.26 K	78.9
167.93 K	79.4
169.61 K	79.9
171.3 K	80.4
173.01 K	81
174.74 K	81.4
176.49 K	82
178.25 K	82.3
180 K	82.99
180.03 K	83
181.83 K	83.5
183.65 K	84.1
185.48 K	84.7
187.34 K	85.1
189.21 K	85.5
191.1 K	86.2
193 K	86.7
194.93 K	87
196.88 K	87.9
198.84 K	88
200 K	88.29
200.83 K	88.7
202.81 K	89
204.8 K	89.7
206.78 K	90.5
208.76 K	90.8
210.75 K	91.3
212.73 K	92.4
214.71 K	91.7
216.7 K	92.1
218.69 K	92.5
220 K	92.87
220.66 K	93
222.65 K	93.4
224.62 K	94
226.6 K	94.3
228.58 K	94.9
230.56 K	95.7
232.54 K	95.8
234.52 K	95.9
236.49 K	96.5
238.47 K	96.6
240 K	96.81
240.44 K	97.1
242.41 K	97.6
244.39 K	97.6
246.36 K	98.4
248.33 K	98.2
250.31 K	98.9
252.27 K	99.4
254.25 K	99.7
256.22 K	99.7
258.19 K	99.8
260 K	100.3
260.16 K	100.3
262.12 K	100.7
264.08 K	100.7
266.04 K	101.8
268.01 K	102.2
269.99 K	101.6
271.94 K	102.6
273.9 K	103
275.86 K	103.2
277.83 K	103.3
279.79 K	103.8
280 K	103.7
281.74 K	104.6
283.71 K	105.2
285.68 K	105
287.63 K	105
289.59 K	105.2
291.54 K	107
293.51 K	106.2
295.49 K	107.4
297.42 K	106.6
298.15 K	107
299.39 K	106.6
300 K	107.4
301.32 K	107.9
